According to ChEMBL document CHEMBL4229492, “Design, Synthesis, and Biological Evaluation of Novel 7-[(3 aS,7 aS)-3 a-Aminohexahydropyrano[3,4- c]pyrrol-2(3 H)-yl]-8-methoxyquinolines with Potent Antibacterial Activity against Respiratory Pathogens” (J Med Chem, 2018):
In brackets after ≈: the same amount, converted by molar mass. Activity calls are given as the source filed them. The calls are words filed in the database; no cut-off is given here.

Test system: Mus musculus
Assay: Toxicity in Slc:ddY mouse assessed as induction of convulsion at 5 ug/5 uL/mouse administered intracisternally 30 mins after 400 mg/kg, po BPAA dosing and measured over 30 mins post dose
Assay type: organism-based
Settings: in vivo, 0.5 h

Compound | Activity
COc1c(N2CC3(CC3)[C@](C)(N)C2)c(F)cc2c(=O)c(C(=O)O)cn([C@@H]3C[C@@H]3F)c12 | Non-Toxic

Test system: Streptococcus pyogenes
Assay: Antibacterial activity against Streptococcus pyogenes ATCC 12344 after 18 hrs by two-fold microbroth dilution method
Assay type: functional
Settings: ATCC 12344, 18 h

Compound | MIC [µg/mL]
COc1c(N2CC3(CC3)[C@](C)(N)C2)c(F)cc2c(=O)c(C(=O)O)cn([C@@H]3C[C@@H]3F)c12 | 0.2 (≈ 0.477 µM)

Test system: Staphylococcus aureus
Assay: Antibacterial activity against methicillin-resistant Staphylococcus aureus after 18 hrs by two-fold microbroth dilution method
Assay type: functional
Settings: Staphylococcus aureus, 18 h

Compound | MIC50 [µg/mL] | MIC90 [µg/mL]
COc1c(N2CC3(CC3)[C@](C)(N)C2)c(F)cc2c(=O)c(C(=O)O)cn([C@@H]3C[C@@H]3F)c12 | 0.03 (≈ 0.0715 µM) | 1 (≈ 2.38 µM)

Same assay, conditions: Staphylococcus aureus, 18 h; read-out: MIC

Compound | MIC [µg/mL]
COc1c(N2CC3(CC3)[C@](C)(N)C2)c(F)cc2c(=O)c(C(=O)O)cn([C@@H]3C[C@@H]3F)c12 | 0.015 to 4 (≈ 0.0358 to 9.54 µM)

Test system: not listed separately
Assay: AUC (0 to 24 hrs) in cynomolgus monkey serum at 5 mg/kg, po
Assay type: ADME, organism-based, Macaca fascicularis
Set-up: time < 24 hr, dose 5 mg/kg, route oral
Settings: not given

Compound | AUC(0-t) at 24 h [ng·h/mL]
COc1c(N2CC3(CC3)[C@](C)(N)C2)c(F)cc2c(=O)c(C(=O)O)cn([C@@H]3C[C@@H]3F)c12 | 16900

Test system: Mus musculus
Assay: Toxicity in Slc:ddY mouse assessed as induction of mortality at 15 ug/5 uL/mouse administered intracisternally 30 mins after 400 mg/kg, po BPAA dosing and measured over 30 mins post dose
Assay type: organism-based
Settings: in vivo, 0.5 h

Compound | Activity
COc1c(N2CC3(CC3)[C@](C)(N)C2)c(F)cc2c(=O)c(C(=O)O)cn([C@@H]3C[C@@H]3F)c12 | Non-Toxic

Biological target: CYP3A4 (Homo sapiens, UniProt P08684)
Assay: Inhibition of CYP3A4 in human liver microsomes at 10 uM assessed as remaining activity by measuring 1'-hydroxylation of midazolam after 30 mins
Assay type: ADME
Settings: probe midazolam (1'-hydroxylation), read-out: Activity

Sequence of CYP3A4 (P08684 whole entry): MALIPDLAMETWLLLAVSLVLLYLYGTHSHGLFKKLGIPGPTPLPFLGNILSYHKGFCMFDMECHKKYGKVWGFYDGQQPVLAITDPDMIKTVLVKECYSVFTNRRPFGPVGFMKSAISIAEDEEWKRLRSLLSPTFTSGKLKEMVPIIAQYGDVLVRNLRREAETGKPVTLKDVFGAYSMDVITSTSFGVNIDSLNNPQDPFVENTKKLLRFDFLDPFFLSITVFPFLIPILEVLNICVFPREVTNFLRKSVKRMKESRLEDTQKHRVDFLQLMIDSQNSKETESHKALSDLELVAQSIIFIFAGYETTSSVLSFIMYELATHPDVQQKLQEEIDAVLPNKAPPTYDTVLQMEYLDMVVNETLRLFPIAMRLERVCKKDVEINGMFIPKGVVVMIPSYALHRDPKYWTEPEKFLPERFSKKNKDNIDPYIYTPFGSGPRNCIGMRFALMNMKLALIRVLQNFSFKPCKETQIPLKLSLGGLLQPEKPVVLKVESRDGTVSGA

Compound | activity at 0.5 h, 10 µM [%]
COc1c(N2CC3(CC3)[C@](C)(N)C2)c(F)cc2c(=O)c(C(=O)O)cn([C@@H]3C[C@@H]3F)c12 | 78.4

Test system: Streptococcus pneumoniae
Assay: Antibacterial activity against penicillin-resistant Streptococcus pneumoniae 033806 after 18 hrs by two-fold microbroth dilution method
Assay type: functional
Settings: Streptococcus pneumoniae, 033806, 18 h

Compound | MIC [µg/mL]
COc1c(N2CC3(CC3)[C@](C)(N)C2)c(F)cc2c(=O)c(C(=O)O)cn([C@@H]3C[C@@H]3F)c12 | 0.12 (≈ 0.286 µM)

Test system: Mus musculus
Assay: Toxicity in Slc:ddY mouse assessed as induction of mortality at 5 ug/5 uL/mouse administered intracisternally and measured over 30 mins post dose
Assay type: organism-based
Settings: in vivo, other, 0.5 h

Compound | Activity
COc1c(N2CC3(CC3)[C@](C)(N)C2)c(F)cc2c(=O)c(C(=O)O)cn([C@@H]3C[C@@H]3F)c12 | Non-Toxic

Test system: Staphylococcus aureus
Assay: Antibacterial activity against levofloxacin and methicillin-resistant Staphylococcus aureus 890325-1 after 18 hrs by two-fold microbroth dilution method
Assay type: functional
Settings: 890325-1, 18 h

Compound | MIC [µg/mL]
COc1c(N2CC3(CC3)[C@](C)(N)C2)c(F)cc2c(=O)c(C(=O)O)cn([C@@H]3C[C@@H]3F)c12 | 0.78 (≈ 1.86 µM)

Test system: Mus musculus
Assay: Toxicity in Slc:ddY mouse assessed as induction of mortality at 50 ug/5 uL/mouse administered intracisternally 30 mins after 400 mg/kg, po BPAA dosing and measured over 30 mins post dose
Assay type: organism-based
Settings: in vivo, 0.5 h

Compound | Activity
COc1c(N2CC3(CC3)[C@](C)(N)C2)c(F)cc2c(=O)c(C(=O)O)cn([C@@H]3C[C@@H]3F)c12 | Non-Toxic

Biological target: Albumin (Homo sapiens, UniProt P02768)
Assay: Binding affinity to human serum albumin after 60 mins at 37 degC by ultrafiltration-based LC-MS analysis
Assay type: ADME
Settings: read-out: PB (converted)

Sequence of Albumin (P02768 whole entry): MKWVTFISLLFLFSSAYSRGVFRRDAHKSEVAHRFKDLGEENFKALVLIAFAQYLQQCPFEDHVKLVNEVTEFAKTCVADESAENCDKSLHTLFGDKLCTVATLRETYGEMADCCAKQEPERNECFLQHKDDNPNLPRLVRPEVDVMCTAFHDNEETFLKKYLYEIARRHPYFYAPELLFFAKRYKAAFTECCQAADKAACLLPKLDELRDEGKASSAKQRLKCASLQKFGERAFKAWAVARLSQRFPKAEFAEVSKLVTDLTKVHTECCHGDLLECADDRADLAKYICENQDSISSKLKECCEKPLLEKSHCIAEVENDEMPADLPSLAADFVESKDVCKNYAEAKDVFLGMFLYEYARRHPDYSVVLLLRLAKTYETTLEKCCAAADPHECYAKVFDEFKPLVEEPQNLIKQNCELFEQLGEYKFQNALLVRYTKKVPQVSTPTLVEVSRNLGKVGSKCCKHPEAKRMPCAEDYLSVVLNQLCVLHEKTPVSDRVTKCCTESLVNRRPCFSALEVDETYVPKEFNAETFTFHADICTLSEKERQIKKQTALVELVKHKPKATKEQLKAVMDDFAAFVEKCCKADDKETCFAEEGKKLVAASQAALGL

Compound | fraction unbound at 1 h
COc1c(N2CC3(CC3)[C@](C)(N)C2)c(F)cc2c(=O)c(C(=O)O)cn([C@@H]3C[C@@H]3F)c12 | 0.946

Test system: Staphylococcus aureus
Assay: Antibacterial activity against Staphylococcus aureus SMITH after 18 hrs by two-fold microbroth dilution method
Assay type: functional
Settings: not given

Compound | MIC [µg/mL]
COc1c(N2CC3(CC3)[C@](C)(N)C2)c(F)cc2c(=O)c(C(=O)O)cn([C@@H]3C[C@@H]3F)c12 | 0.012 (≈ 0.0286 µM)

Test system: Staphylococcus aureus
Assay: Antibacterial activity against levofloxacin and methicillin-resistant Staphylococcus aureus 870307 after 18 hrs by two-fold microbroth dilution method
Assay type: functional
Settings: Staphylococcus aureus, 870307, 18 h

Compound | MIC [µg/mL]
COc1c(N2CC3(CC3)[C@](C)(N)C2)c(F)cc2c(=O)c(C(=O)O)cn([C@@H]3C[C@@H]3F)c12 | 0.78 (≈ 1.86 µM)

Test system: Mus musculus
Assay: Toxicity in Slc:ddY mouse assessed as induction of mortality at 5 ug/5 uL/mouse administered intracisternally 30 mins after 400 mg/kg, po BPAA dosing and measured over 30 mins post dose
Assay type: organism-based
Settings: in vivo, 0.5 h

Compound | Activity
COc1c(N2CC3(CC3)[C@](C)(N)C2)c(F)cc2c(=O)c(C(=O)O)cn([C@@H]3C[C@@H]3F)c12 | Non-Toxic

Test system: Mus musculus
Assay: Toxicity in Slc:ddY mouse assessed as induction of mortality at 15 ug/5 uL/mouse administered intracisternally and measured over 30 mins post dose
Assay type: organism-based
Settings: in vivo, other, 0.5 h

Compound | Activity
COc1c(N2CC3(CC3)[C@](C)(N)C2)c(F)cc2c(=O)c(C(=O)O)cn([C@@H]3C[C@@H]3F)c12 | Non-Toxic

Test system: not listed separately
Assay: AUC (0 to 8 hrs) in cynomolgus monkey serum at 5 mg/kg, iv
Assay type: ADME, organism-based, Macaca fascicularis
Set-up: dose 5 mg/kg, time < 8 hr, route intravenous
Settings: not given

Compound | AUC(0-t) at 8 h [ng·h/mL]
COc1c(N2CC3(CC3)[C@](C)(N)C2)c(F)cc2c(=O)c(C(=O)O)cn([C@@H]3C[C@@H]3F)c12 | 23800

Test system: Mus musculus
Assay: Toxicity in Slc:ddY mouse assessed as induction of mortality at 50 ug/5 uL/mouse administered intracisternally and measured over 30 mins post dose
Assay type: organism-based
Settings: in vivo, other, 0.5 h

Compound | Activity
COc1c(N2CC3(CC3)[C@](C)(N)C2)c(F)cc2c(=O)c(C(=O)O)cn([C@@H]3C[C@@H]3F)c12 | Toxic

Test system: Escherichia coli
Assay: Antibacterial activity against Escherichia coli 5-037042'98 harboring gyrase A Asp87Gly mutation after 18 hrs by two-fold microbroth dilution method
Assay type: functional
Settings: 5-037042'98, 18 h

Compound | MIC [µg/mL]
COc1c(N2CC3(CC3)[C@](C)(N)C2)c(F)cc2c(=O)c(C(=O)O)cn([C@@H]3C[C@@H]3F)c12 | 0.05 (≈ 0.119 µM)

Test system: Streptococcus pneumoniae
Assay: Antibacterial activity against penicillin-susceptible Streptococcus pneumoniae J41 after 18 hrs by two-fold microbroth dilution method
Assay type: functional
Settings: J41, 18 h

Compound | MIC [µg/mL]
COc1c(N2CC3(CC3)[C@](C)(N)C2)c(F)cc2c(=O)c(C(=O)O)cn([C@@H]3C[C@@H]3F)c12 | 0.1 (≈ 0.238 µM)

Test system: Mus musculus
Assay: Toxicity in Slc:ddY mouse assessed as induction of convulsion at 5 ug/5 uL/mouse administered intracisternally and measured over 30 mins post dose
Assay type: organism-based
Settings: in vivo, other, 0.5 h

Compound | Activity
COc1c(N2CC3(CC3)[C@](C)(N)C2)c(F)cc2c(=O)c(C(=O)O)cn([C@@H]3C[C@@H]3F)c12 | Non-Toxic

Test system: Bacillus spizizenii
Assay: Antibacterial activity against Bacillus subtilis ATCC 6633 after 18 hrs by two-fold microbroth dilution method
Assay type: functional
Settings: ATCC 6633, 18 h

Compound | MIC [µg/mL]
COc1c(N2CC3(CC3)[C@](C)(N)C2)c(F)cc2c(=O)c(C(=O)O)cn([C@@H]3C[C@@H]3F)c12 | 0.012 (≈ 0.0286 µM)

Test system: not listed separately
Assay: Metabolic stability in human microsomes at 1 uM assessed as compound remaining after 30 mins
Assay type: ADME, Microsome
Settings: read-out: Stability

Compound | remaining at 0.5 h, 1 µM [%]
COc1c(N2CC3(CC3)[C@](C)(N)C2)c(F)cc2c(=O)c(C(=O)O)cn([C@@H]3C[C@@H]3F)c12 | 97

Test system: Mus musculus
Assay: Toxicity in Slc:ddY mouse assessed as induction of convulsion at 50 ug/5 uL/mouse administered intracisternally and measured over 30 mins post dose
Assay type: organism-based
Settings: in vivo, other, 0.5 h

Compound | Activity
COc1c(N2CC3(CC3)[C@](C)(N)C2)c(F)cc2c(=O)c(C(=O)O)cn([C@@H]3C[C@@H]3F)c12 | Toxic

Test system: Streptococcus pneumoniae
Assay: In vivo antibacterial activity against quinolone-sensitive and penicillin-resistant Streptococcus pneumoniae 033806 infected in CBA/JNCrj mouse assessed as reduction in bacterial count at 10 to 40 mg/kg, sc administered twice per day starting from 1 day after infection and measured on day after final dose
Assay type: functional, organism-based
Settings: not given

Compound | Activity
COc1c(N2CC3(CC3)[C@](C)(N)C2)c(F)cc2c(=O)c(C(=O)O)cn([C@@H]3C[C@@H]3F)c12 | Active

Test system: Escherichia coli
Assay: Antibacterial activity against quinolone-resistant Escherichia coli DNS5101 after 18 hrs by two-fold microbroth dilution method
Assay type: functional
Settings: DNS5101, 18 h

Compound | MIC [µg/mL]
COc1c(N2CC3(CC3)[C@](C)(N)C2)c(F)cc2c(=O)c(C(=O)O)cn([C@@H]3C[C@@H]3F)c12 | 6.25 (≈ 14.9 µM)
